Assay [1] has as its target CLK3 kinase (Homo sapiens, UniProt P49761). Nature of the assay: CLK3 kinase activity assay (Z-lyte FRET).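 Also: kinase activity read as coumarin/fluorescein emission ratio by FRET, unphosphorylated peptide as 0% and phosphorylated peptide as 100% control, values from non-linear regression of dose-response curves.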 Particulars: Z-lyte Ser/Thr 18 peptide, 156 μM ATP, 1 h at room temperature. It is filed as biochemical.
Assay [2] deals with CLK2 kinase (Homo sapiens, UniProt P49760). Put plainly: CLK2 kinase activity assay (Z-lyte FRET).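 Also: FRET read-out as coumarin to fluorescein emission ratio, unphosphorylated peptide as 0% and phosphorylated peptide as 100% controls, duplicate reactions, non-linear regression fit of dose-response curves.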 The assay is classed as biochemical. The conditions noted are these: Z-lyte Ser/Thr 6 peptide, 60 μM ATP, 1 h at room temperature.
Assay [3] has as its system Wnt pathway activity (SW480 colon carcinoma cells stably expressing the Sp5-Luc reporter). Put plainly: Wnt pathway activity screening assay (Sp5-Luc reporter gene assay). Particulars: Homo sapiens, SW480, Table 4; SW480 cells stably expressing Sp5-Luc reporter, 10-point dose-response from 10 μM, 36 to 48 hours.
Assay [4] deals with MMP-3 levels in supernatant of chondrocytes stimulated with IL1-β. Nature of the assay: Chondrocyte protection assay compound screening (MMP-3 LANCE Ultra). It is filed as cell-based, human. Particulars: Homo sapiens, Chondrocyte, IL1-β 10 ng/mL overnight, 11-point curves from 3 μM to 0.05 nM; for Emax: read-out: Maximum % Inhibition. The procedure, abridged: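 Primary human chondrocytes (passage 2–5) in differentiation medium were stimulated with 10 ng/mL IL1-β for an overnight incubation at 37 °C. MMP-3 in 1:7-diluted supernatant was read by TR-FRET immunoassay against a standard curve, normalised to IL1-β-stimulated wells; EC50 and maximum % inhibition came from nonlinear regression.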

What is called EC50 is the concentration that produces a half-maximal response. Low values mean an effect from little substance, high ones a need for much substance.

Sequence of CLK2 kinase (P49760 whole entry): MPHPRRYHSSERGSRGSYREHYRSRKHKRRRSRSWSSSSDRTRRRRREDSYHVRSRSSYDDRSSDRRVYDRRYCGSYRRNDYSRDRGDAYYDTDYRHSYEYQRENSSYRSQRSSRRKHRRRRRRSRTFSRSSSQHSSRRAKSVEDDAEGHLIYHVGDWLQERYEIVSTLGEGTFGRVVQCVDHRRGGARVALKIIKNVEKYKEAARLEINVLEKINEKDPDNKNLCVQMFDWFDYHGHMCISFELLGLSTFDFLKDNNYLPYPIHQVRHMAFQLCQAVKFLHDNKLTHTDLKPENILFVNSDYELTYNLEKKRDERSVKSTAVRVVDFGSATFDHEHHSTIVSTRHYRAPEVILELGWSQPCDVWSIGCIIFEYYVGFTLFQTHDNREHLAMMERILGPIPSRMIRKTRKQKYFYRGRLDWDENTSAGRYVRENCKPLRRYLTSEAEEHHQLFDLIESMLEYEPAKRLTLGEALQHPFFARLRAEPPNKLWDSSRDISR
Sequence of CLK3 kinase (P49761 whole entry): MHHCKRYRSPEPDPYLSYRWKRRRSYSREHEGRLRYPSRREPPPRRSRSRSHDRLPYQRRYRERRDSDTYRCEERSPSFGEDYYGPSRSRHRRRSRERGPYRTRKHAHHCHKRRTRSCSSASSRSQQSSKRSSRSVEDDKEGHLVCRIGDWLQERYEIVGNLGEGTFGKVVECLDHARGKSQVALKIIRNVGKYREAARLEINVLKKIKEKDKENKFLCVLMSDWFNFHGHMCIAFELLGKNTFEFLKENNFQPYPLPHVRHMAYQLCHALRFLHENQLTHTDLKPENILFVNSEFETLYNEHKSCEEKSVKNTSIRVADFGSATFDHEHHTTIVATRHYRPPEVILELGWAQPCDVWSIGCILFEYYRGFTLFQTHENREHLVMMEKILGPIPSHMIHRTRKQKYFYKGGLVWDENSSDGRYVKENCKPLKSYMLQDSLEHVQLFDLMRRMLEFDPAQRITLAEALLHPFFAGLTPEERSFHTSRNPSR

Turning to `COc1ccc(NC(=O)c2n[nH]cc2/C=C/c2cncc(CN3CCCCC3)c2)cn1` [compound 24], the EC50 in assay [1] is 1250 nM; in assay [2] it was 26 nM; in assay [3], 1450 nM; in assay [4], at least 3000 nM. In assay [4], the Emax turned out to be 74.1%.

Turning to `Cc1[nH]nc(C(=O)Nc2ccc(OC3CCN(C)CC3)nc2)c1/C=C/c1cccnc1` [compound 22], the EC50 in assay [1] is 2330 nM; in assay [2] it was 7 nM; in assay [3] it was above 10000 nM; in assay [4], 17.8 nM. Also, in assay [4], the Emax amounted to 64.6%.

For the compound `NC(=O)c1ccc(NC(=O)c2n[nH]c3ccc(-c4cncc(CN5CCCCC5)c4)cc23)cn1` [compound 87], the EC50 amounted to 11 nM in assay [1], 1 nM in assay [2], 13 nM in assay [3] and 2220 nM in assay [4]. The Emax in assay [4] is 100%.

`CN1CC=C(c2cc(C(=O)Nc3cc4cc(-c5cncc(NC(C)(C)C)n5)cnc4cn3)ccn2)CC1` [compound 612]: the EC50 in assay [1] is 12 nM; in assay [2] it was 5 nM; in assay [3], 357 nM; in assay [4] it was at least 3000 nM. The Emax in assay [4] was determined as 38.6%.

Regarding `COc1cncc(C(=O)Nc2c[nH]nc2C(=O)Nc2ccc3c(c2)CCNC3)c1` [compound 8], the EC50 in assay [1] came to 6160 nM; in assay [2], 27 nM; in assay [3], 613 nM; in assay [4] it was 342 nM. In assay [4], the Emax came to 76%.

For `O=C(Nc1c[nH]nc1C(=O)Nc1ccc(N2CCCC2)nc1)c1cncc(OC2CCNCC2)c1` [compound 11], the EC50 in assay [1] is 5150 nM; in assay [2], 9 nM; in assay [3] it was 2.5 nM; in assay [4], at least 3000 nM. Further, the Emax in assay [4] was 80%.

As to `Cc1n[nH]c2ccc(-c3cc(OC[C@H](N)Cc4ccccc4)cnn3)cc12` [compound 53], the EC50 in assay [1] was 3490 nM; in assay [2] it was 19 nM; in assay [3], 1150 nM; in assay [4], at least 3000 nM. Further, in assay [4], the Emax came to 74.9%.

`O=C(Nc1c[nH]nc1-c1nc2c(-c3cccc(F)c3)cccc2[nH]1)c1cccnc1` [compound 15]: the EC50 was 485 nM in assay [1], 2 nM in assay [2], 2.9 nM in assay [3] and 76.5 nM in assay [4]. The Emax in assay [4] was 100%.

Consider `O=C(Nc1ccc(N2CC(CO)(CO)C2)nc1)c1n[nH]c2ccc(-c3cncc(CN4CCCCC4)c3)cc12` [compound 90], for which the EC50 was 39 nM in assay [1], 1 nM in assay [2], 1500 nM in assay [3] and 6.7 nM in assay [4]. Moreover, in assay [4], the Emax turned out to be 29.7%.

`Cc1cc(-c2ccc3[nH]nc(C(=O)Nc4ccc(OC5CCN(C)CC5)cc4)c3c2)sn1` [compound 117]: the EC50 in assay [1] turned out to be 147 nM; in assay [2] it was 2 nM; in assay [3], 645 nM; in assay [4], 44.2 nM. In assay [4], the Emax stood at 94.4%.

Consider `O=C(Nc1cccnc1)c1n[nH]c2cnc(-c3cncc(CN4CCCCC4)c3)cc12` [compound 118], for which the EC50 in assay [1] was 601 nM; in assay [2], 8 nM; in assay [3], 848 nM; in assay [4], 138 nM. In assay [4], the Emax is 21.1%.

Take `CN1CCC2(CC1)CN(c1cc(C(=O)Nc3cc4cc(-c5cnn(C)c5CN5CCCCC5)cnc4cn3)ccn1)C2` [compound 610]: the EC50 in assay [1] is 31 nM; in assay [2], 9 nM; in assay [3], 607 nM; in assay [4], at least 3000 nM. Further, in assay [4], the Emax stood at 30.4%.

As to `CN1CCC(n2cc(C(=O)Nc3ncc4ccc(-c5cncc6[nH]ccc56)cc4n3)cn2)CC1` [compound 616], the EC50 in assay [1] was 19 nM; in assay [2], 6 nM; in assay [3] it was 1400 nM; in assay [4], at least 3000 nM. For the same compound, the Emax in assay [4] was found to be 48.3%.

Regarding `CC(C)CC(=O)Nc1cncc(-c2cnc3[nH]nc(-c4nc5c(-c6cccc(F)c6)cncc5[nH]4)c3c2)c1` [compound 125], the EC50 was 57 nM in assay [1], 1 nM in assay [2], 0.6 nM in assay [3] and at least 3000 nM in assay [4].

On to `Cc1n[nH]c2ccc(-c3cncc(N4CCC(O)CC4)n3)cc12` [compound 39], for which the EC50 in assay [1] is 4260 nM; in assay [2] it was 25 nM; in assay [3] it was 1900 nM; in assay [4], 47.8 nM. Besides, the Emax in assay [4] was 60.8%.

Take `Cc1ncc(C(=O)Nc2cc3cc(-c4cnc(C)n4C)ccc3cn2)s1` [compound 589]: the EC50 was 31 nM in assay [1], 2 nM in assay [2], 102 nM in assay [3] and at least 3000 nM in assay [4]. In addition, the Emax in assay [4] worked out at 43.5%.

Take `O=C(Nc1cc2cc(-c3cnn4c3CCNC4)ccc2cn1)c1ccc(OC(F)F)cc1` [compound 574]: the EC50 was 200 nM in assay [1], 2 nM in assay [2], 375 nM in assay [3] and 1920 nM in assay [4]. Moreover, the Emax in assay [4] came out at 59.5%.

As to `O=C(Nc1cnccn1)c1n[nH]c2ccc(-c3cncc(CN4CCCCCC4)c3)cc12` [compound 99], the EC50 in assay [1] is 135 nM; in assay [2], 2 nM; in assay [3], 430 nM; in assay [4], at least 3000 nM. In assay [4], the Emax is 39.6%.

Take `O=C(Nc1cc2cc(-c3cncc(CN4CCC(O)CC4)c3)ccc2cn1)c1ccc(F)cc1` [compound 597]: the EC50 in assay [1] was 94 nM; in assay [2], 9 nM; in assay [3], 382 nM; in assay [4] it was 2.9 nM. In addition, the Emax in assay [4] was determined as 3.7%.

Turning to `CN1CCC(Nc2cc(C(=O)Nc3cc4cc(-c5cnn(C)c5)ccc4cn3)ccn2)CC1` [compound 555], the EC50 in assay [1] is 21 nM; in assay [2], 1 nM; in assay [3], 65.6 nM; in assay [4] it was at least 3000 nM. The Emax in assay [4] is 85.1%.

Turning to `COc1cncc(C(=O)Nc2c[nH]nc2C(=O)Nc2ccc3c(c2)CCN(C)C3)c1` [compound 9], the EC50 in assay [1] is 6090 nM; in assay [2], 45 nM; in assay [3] it was 558 nM; in assay [4] it was at least 3000 nM. The Emax in assay [4] turned out to be 65.6%.

Regarding `O=C(Nc1cc2cc(-c3cncc(NCC4(F)CNC4)n3)ccc2cn1)C1CC1` [compound 602], the EC50 in assay [1] was 18 nM; in assay [2], 2 nM; in assay [3], 119 nM; in assay [4], 897 nM. Moreover, in assay [4], the Emax was found to be 99.5%.

With `O=C(Nc1ccc(CN2CCCC2)cc1)c1n[nH]c2ccc(-c3cccnc3F)cc12` [compound 65], the EC50 in assay [1] is 47 nM; in assay [2], 1 nM; in assay [3], 196 nM; in assay [4], at least 3000 nM. Moreover, in assay [4], the Emax was found to be 98.1%.

Take `O=C(Nc1cc2cc(-c3cncc(NC4CCNCC4)n3)ccc2cn1)C1CCCCC1` [compound 601]: the EC50 in assay [1] was 59 nM; in assay [2] it was 2 nM; in assay [3], 319 nM; in assay [4], at least 3000 nM. For the same compound, the Emax in assay [4] is 91.6%.

For the compound `O=C(Nc1cncc(-c2ccc3[nH]nc(-c4cc5cnccc5[nH]4)c3c2)c1)C1CCCCC1` [compound 431], the EC50 in assay [1] was 18 nM; in assay [2], 1 nM; in assay [3] it was 285 nM; in assay [4], 6.7 nM. Also, the Emax in assay [4] is 100%.

On to `CN1CCC(Oc2ccc3[nH]c(-c4n[nH]c5ccc(-c6cnn(C)c6)cc45)nc3c2)CC1` [compound 299], for which the EC50 in assay [1] amounted to 29 nM; in assay [2], 1 nM; in assay [3] it was 18.3 nM; in assay [4] it was 170 nM. The Emax in assay [4] came to 100%.

Consider `CC(C)Nc1cncc(-c2ccc3cnc(NC(=O)c4cccc(C5CCN(C)CC5)c4)cc3c2)n1` [compound 599], for which the EC50 in assay [1] is 11 nM; in assay [2], 2 nM; in assay [3] it was 132 nM; in assay [4], at least 3000 nM. Besides, in assay [4], the Emax came to 66.4%.

For `CCC1(N)CN(c2cncc(-c3ccc4[nH]nc(C)c4c3)n2)C1` [compound 37], the EC50 in assay [1] is 5500 nM; in assay [2] it was 43 nM; in assay [3], 1730 nM; in assay [4], at least 3000 nM. Besides, the Emax in assay [4] was 55.1%.

Regarding `Cn1cc(-c2cc3c(C(=O)Nc4ccc(OCCN5CCCC5)cc4)n[nH]c3cc2F)cn1` [compound 108], the EC50 in assay [1] was 101 nM; in assay [2], 1 nM; in assay [3], 315 nM; in assay [4] it was at least 3000 nM. For the same compound, the Emax in assay [4] amounted to 32.1%.

For the compound `Fc1cccc(-c2cncc3[nH]c(-c4n[nH]c5cnc(-c6cncc(OC7CCNCC7)c6)cc45)nc23)c1` [compound 152], the EC50 is 33 nM in assay [1], 1 nM in assay [2], above 10000 nM in assay [3] and 1710 nM in assay [4]. Further, in assay [4], the Emax worked out at 31.8%.

Turning to `Cn1cc(-c2cc3c(C(=O)Nc4ccc5c(c4)CNC5)n[nH]c3cc2F)cn1` [compound 112], the EC50 in assay [1] is 116 nM; in assay [2], 1 nM; in assay [3] it was 793 nM; in assay [4], 1200 nM. The Emax in assay [4] came out at 88.3%.

The record behind these values is patent publication US20230000842A1, “METHODS OF TREATING CARTILAGE DISORDERS THROUGH INHIBITION OF CLK AND DYRK” (SAMUMED, LLC, priority 2019, published 2023).
